Assay results as given in patent US5858397A, “Liposomal formulations of mitoxantrone” (priority 1995, dated 1999).
Where a name gives a salt, the structure may show the parent alone.

What was measured:
in vivo = details: mouse, iv, 10 mg/kg
Experimental: At 1, 4, 24, and 48 hours, the animals were terminated by CO2 asphyxiation and whole blood was collected via cardiac puncture. The collected blood was immediately placed into EDTA coated tubes (MICROTAINERS® from Becton Dickinson). Subsequently, plasma was prepared by centrifuging the EDTA treated whole blood at 500×g for 10 min. Lipid and drug was assayed via [^3 H]-Cholesteryl hexadecyl ether and I^14 C]-mitoxantrone tracer using a scintillation counter as described above.
An estimation of the amount of mitoxantrone retained in the liposomes that are in the circulation can be made by determining the ratio of mitoxantrone-to-lipid at the indicated time points. This estimation assumes that the level of free drug in the plasma of animals given liposomal mitoxantrone will be negligible.

[1] = tested on: tumor models and human carcinomas; details: cited from earlier work
[2] = Toxic dose range finding (maximum tolerated dose) in tumor-free mice; details: mouse, in vivo
Experimental: (§1) Injections were administered in a volume of 200 μL. In order to achieve this volume for the 20 mg/kg dose, the stock mixture was concentrated using Aquacide II. Survival times of the mice were then monitored over a sixty day time course. Increase in life span (ILS %) was calculated as follows: [formula] Maximum tolerated dose was determined by monitoring the weight loss of the mice over a two week period. If the mice lost greater than 30% of the original weight then the mice are terminated.

[3] = Change in body weight during efficacy studies
Experimental: as §1

L1210 = L1210 anti-tumor activity (survival); format: in vivo, BDF1 mice; details: for 60 Day Survival / Mean Survival: single; for % ILS (Increase in Life Span): vs untreated control
Experimental: as §1
The antitumor effects of free mitoxantrone and liposomal mitoxantrone were compared using the L1210 tumor model. L1210 is a murine lymphocytic leukemia. […] This provides identical tumor models for the two organs.

Which AUC (in vivo) does the source give for `O=C1c2c(O)ccc(O)c2C(=O)c2c(NCCNCCO)ccc(NCCNCCO)c21` [Free Mitoxantrone, mitoxantrone hydrochloride] here?
The AUC was 11.4 ng·h/mL.

And the “short and long term toxicity compared with doxorubicin” value [1]?
The value was “lower short and long term toxicity than doxorubicin”.

What about the toxic side effect [1] of the same molecule?
The toxic side effect was “myelosuppression”.

What about the MTD [2] of the same molecule?
Its MTD is 10 mg/kg.

What about the “body weight loss at nadir” value ([3]; L1210-bearing mice, free 10 mg/kg, liposomal 20 mg/kg, day 12 to 13) of the same molecule?
Its value is roughly 30%.

What about the MTD ([3]; mouse, in vivo) of the same molecule?
Its MTD is 10 mg/kg.

And the maximum therapeutic dose (L1210; 10^4 L1210 cells i.v., treated 24 h later)?
Its maximum therapeutic dose is 10 mg/kg.

And the “60 Day Survival” value (L1210; drug dose 5 mg/kg)?
The value was 0/5.

And the “Mean Survival” value (L1210; drug dose 5 mg/kg)?
The value was 13.6 days.

And the “% ILS (Increase in Life Span)” value (L1210; drug dose 5 mg/kg)?
Its value is 58%.

What about the “60 Day Survival” value (L1210; drug dose 10 mg/kg) of the same molecule?
The value was 0/5.

And the “Mean Survival” value (L1210; drug dose 10 mg/kg)?
Its value is 16.6 days.

And the “% ILS (Increase in Life Span)” value (L1210; drug dose 10 mg/kg)?
Its value is 93%.

What about the “60 Day Survival” value (L1210; drug dose 20 mg/kg) of the same molecule?
The value was 0/5.

What about the “Mean Survival” value (L1210; drug dose 20 mg/kg) of the same molecule?
The value was 12.6 days.

And the “% ILS (Increase in Life Span)” value (L1210; drug dose 20 mg/kg)?
The value was 47%.

And the “maximum % increase in life span” value (L1210; maximum over the doses tested)?
Its value is 93%.

With `COc1cccc2c1C(=O)c1c(O)c3c(c(O)c1C2=O)C[C@@](O)(C(=O)CO)C[C@@H]3O[C@H]1C[C@H](N)[C@H](O)[C@H](C)O1` [doxorubicin] as the molecule, how does the toxic side effect [1] read?
Its toxic side effect is “dose limiting cardiotoxicity”.
